In the assay the target is T1, trypanothione synthetase-amidase (TRYS) (Trypanosoma brucei, UniProt Q586P2).
T1 sequence (Q586P2 1-627): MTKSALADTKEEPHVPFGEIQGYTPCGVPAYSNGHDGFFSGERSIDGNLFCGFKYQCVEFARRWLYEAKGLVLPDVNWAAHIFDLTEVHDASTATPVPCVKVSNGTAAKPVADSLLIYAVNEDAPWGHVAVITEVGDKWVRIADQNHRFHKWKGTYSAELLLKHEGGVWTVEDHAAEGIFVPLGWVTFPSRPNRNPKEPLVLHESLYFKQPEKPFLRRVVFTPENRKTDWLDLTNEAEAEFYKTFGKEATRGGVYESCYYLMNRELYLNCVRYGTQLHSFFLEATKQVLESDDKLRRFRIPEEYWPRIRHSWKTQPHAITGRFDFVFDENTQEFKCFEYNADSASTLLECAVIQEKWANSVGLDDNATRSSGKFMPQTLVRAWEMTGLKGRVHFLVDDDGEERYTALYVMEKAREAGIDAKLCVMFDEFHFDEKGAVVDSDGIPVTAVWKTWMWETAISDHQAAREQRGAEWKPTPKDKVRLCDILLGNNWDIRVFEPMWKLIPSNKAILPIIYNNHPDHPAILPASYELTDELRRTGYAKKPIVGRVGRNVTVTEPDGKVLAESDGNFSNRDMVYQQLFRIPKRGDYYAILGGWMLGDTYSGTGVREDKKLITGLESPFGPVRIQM
As to the kind of experiment: inhibition of recombinant TRYS. It is filed as biochemical.

As for `CN(C)CCCNC(=O)Cn1nc(-c2cccc(F)c2)c2ccccc21` [DDU 86439, N-(3-(dimethylamino)propyl)-2-(3-(3-fluorophenyl)-1H-indazol-1-yl)acetamide], the IC50 was 45 nM.

The record behind these values is paper PMC2784880 (2009).
